Assay results as given in ChEMBL document CHEMBL1129120, “Anti-human immunodeficiency and anti-hepatitis B virus activities of -l-2,3-dideoxy purine nucleosides” (Bioorg Med Chem Lett, 1996).

Tests used:
HepG2 [1] = assay: Antiviral activity against Hepatitis B virus in 2.2.15 cell line; assay type: functional, cell-based; conditions: Homo sapiens
HepG2 [2] = assay: Concentration required to inhibit 50% of 2.2.15 cell line; assay type: functional, cell-based; conditions: Homo sapiens
[3] = Concentration required to inhibit 50% of human peripheral blood mononuclear cells; assay type: functional
[4] = Antiviral activity against HIV in human peripheral blood mononuclear cells (PBMC); assay type: functional
CCRF-CEM [5] = assay: Antiviral activity against HIV in CEM cell line; assay type: functional, cell-based; conditions: Homo sapiens
CCRF-CEM [6] = assay: Concentration required to inhibit 50% of CEM cell lines; assay type: functional, cell-based; conditions: Homo sapiens

Row | EC50 (HepG2 [1]) | IC50 (HepG2 [2]) | IC50 [3] | EC50 [4] | EC50 (CCRF-CEM [5]) | IC50 (CCRF-CEM [6]) | SMILES
1 | > 10 µM | 50 µM | 60 µM | 5.5 µM | – | – | OC[C@H]1C=C[C@@H](n2cnc3c(O)ncnc32)O1
2 | > 10 µM | 50 µM | > 100 µM | 14.1 µM | 18.1 µM | > 10 µM | Nc1nc(O)c2ncn([C@@H]3C=C[C@H](CO)O3)c2n1

The next lines start with the molecule.

Row | SMILES | EC50 (HepG2 [1]) | IC50 (HepG2 [2]) | IC50 [3] | EC50 [4] | EC50 (CCRF-CEM [5]) | IC50 (CCRF-CEM [6])
3 | Nc1ncnc2c1ncn2[C@H]1CC[C@@H](CO)O1 (single isomer, unassigned) | 6 µM | > 200 µM | > 100 µM | 8.2 µM | – | –
4 | O=c1[nH]cnc2c1ncn2[C@H]1CC[C@@H](CO)O1 (single isomer, unassigned) [DIDANOSINE] | > 10 µM | > 200 µM | > 100 µM | > 100 µM | – | –
5 | Nc1nc(O)c2ncn([C@H]3CC[C@@H](CO)O3)c2n1 (single isomer, unassigned) | > 10 µM | 200 µM | > 100 µM | > 100 µM | > 100 µM | > 100 µM
6 | Nc1ncnc2c1ncn2[C@H]1C=C[C@@H](CO)O1 (single isomer, unassigned) | 1.2 µM | 70 µM | 59 µM | 0.38 µM | 0.54 µM | 37 µM
